# Article PMC4398506, “Remodeling of host phosphatidylcholine by Chlamydia acyltransferase is regulated by acyl-CoA binding protein ACBD6 associated with lipid droplets” (MicrobiologyOpen, 2015)
# Target: T1, CT775 (Chlamydia LPCAT) (Chlamydia trachomatis, UniProt O84780)
# T1 construct: gene CT_775; full-length gene (253 residues predicted) in pET28a, His-tagged, expressed in E. coli BL21DE3; cleared lysate or membrane fraction, not purified
# Assay: radiometric TLC assay of […]PC formation from lysoPC
# Type: biochemical
# Conditions: labelled compound; acyl donor with 20 umol/L egg lysoPC; pH 7.0, 37 C, Tween-20
# T1 sequence (O84780 entry or part of it): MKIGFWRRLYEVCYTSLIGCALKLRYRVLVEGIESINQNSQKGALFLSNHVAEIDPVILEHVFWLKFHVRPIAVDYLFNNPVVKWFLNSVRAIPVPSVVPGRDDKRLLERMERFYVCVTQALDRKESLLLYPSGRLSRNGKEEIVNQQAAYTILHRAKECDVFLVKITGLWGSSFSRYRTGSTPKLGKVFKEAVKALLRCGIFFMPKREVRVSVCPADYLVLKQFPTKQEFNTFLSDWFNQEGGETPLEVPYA
smiles,measurement,value
CCCCCCCC/C=C\CCCCCCCC(=O)SCCNC(=O)CCNC(=O)[C@H](O)C(C)(C)COP(=O)(O)OP(=O)(O)OC[C@H]1O[C@@H](n2cnc3c(N)ncnc32)[C@H](O)[C@@H]1OP(=O)(O)O [C18:1-CoA],radiometric TLC assay of [14C]PC formation from lysoPC,The rate of PC formation by CT775 was dependent on the concentration of oleoyl-CoA
